Common to all, as to experiment: growth of human tumour cells (NCI), 48 h
In assay [1] the test system is A498.
Assay [2] has as its system COLO 205.
Assay [3] deals with EKVX.
Assay [4] concerns HOP-92.
The subject of assay [5] is IGROV-1.
In assay [6] the test system is K562.
The subject of assay [7] is KM-20L2.
Assay [8] deals with LOX IMVI.
Assay [9] deals with Malme-3M.
Assay [10] relates to NCI-H460.
In assay [11] the test system is OVCAR-3.
The subject of assay [12] is RXF 393.
Assay [13] deals with SF-295.
Assay [14] deals with SK-MEL-5.
Assay [15] relates to SN12C.
Assay [16] has as its system BT-549.
In assay [17] the test system is Hs-578T.
Assay [18] relates to MDA-MB-231.
Assay [19] deals with MDA-MB-435.
The subject of assay [20] is T47D.

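96-well plates; 48 h exposure; 5 concentrations. Endpoints by linear interpolation between flanking doses. Not reached: highest tested concentration assigned. GI50 marks 50% less growth.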 Activity calls are given as the source filed them. No stated cut-off is given here; in the data, active = GI50 up to about 1.1 µM and inactive = higher.

As for `CCOC(=O)C(=O)Nc1c(CC)cccc1C(C)CC` (stereo unspecified), the GI50 in assay [1], in [2], in assay [3], in assay [4], in [5] and in [6] was > 100 µM (inactive) in each case. The GI50 in assay [7], in assay [8], in assay [9], in [10], in [11] and in [12] was > 100 µM (inactive) throughout. In addition, the GI50 in assay [13], in [14] and in assay [15] was > 100 µM (inactive) throughout.
With `CC(=O)Nc1ccc(C2=N/C(=C\c3ccc(Cl)cc3)C(=O)O2)cc1`, the GI50 in [1] was > 100 µM (inactive); in assay [2], 39.2 µM (inactive); in [3], > 100 µM (inactive); in assay [4], 33.7 µM (inactive); in assay [5], > 100 µM (inactive); in assay [6], 19.5 µM (inactive). The GI50 is 84.7 µM (inactive) in assay [7]; 18.4 µM (inactive) in [8]; 87.7 µM (inactive) in assay [9]; 69.5 µM (inactive) in assay [10]; 27.8 µM (inactive) in [11]; 53.5 µM (inactive) in assay [12]. In addition, the GI50 in assay [13] was > 100 µM (inactive); in assay [14], 77.8 µM (inactive); in assay [15] it was 28.2 µM (inactive).
For the molecule `CCOC(=O)c1cc(C(=O)O)c(=O)n2c1[nH]c1ccccc12`, the GI50 was > 100 µM (inactive) in assay [1]; > 100 µM (inactive) in [2]; > 100 µM (inactive) in assay [3]; 88.9 µM (inactive) in assay [5]; > 100 µM (inactive) in assay [6]; > 100 µM (inactive) in assay [7]. The GI50 is > 100 µM (inactive) in [9]; 89.9 µM (inactive) in [10]; > 100 µM (inactive) in assay [11]; 24.3 µM (inactive) in assay [12]; > 100 µM (inactive) in assay [13]; 60.8 µM (inactive) in [14]. Moreover, the GI50 in assay [15] was > 100 µM (inactive).
In the case of `CC1(C)CC[C@]2(C)[C@@H](O)C[C@]3(C)C(=CC[C@@H]4[C@@]5(C)CC[C@H](O)C(C)(C)[C@@H]5CC[C@]43C)[C@@H]2C1`, the GI50 in assay [1] was 34.3 µM (inactive); in [16], 93.1 µM (inactive); in assay [2], 48.6 µM (inactive); in [3], 38.8 µM (inactive); in assay [4] it was 16.2 µM (inactive); in assay [17] it was 24.4 µM (inactive). In addition, the GI50 is 35.9 µM (inactive) in [5]; > 100 µM (inactive) in assay [6]; 16.4 µM (inactive) in [8]; 16.8 µM (inactive) in assay [18]; > 100 µM (inactive) in assay [19]; 29.4 µM (inactive) in assay [9]. In addition, the GI50 in [10] is 41.2 µM (inactive); in assay [11] it was 65.2 µM (inactive); in assay [12] it was 7.24 µM (inactive); in assay [13], 29.4 µM (inactive); in assay [14] it was 35.3 µM (inactive); in assay [15], 56.9 µM (inactive). Besides, in assay [20], the GI50 is 9.79 µM (inactive).
In the case of `Cc1ccc(/C=C/C(=O)C(C)C)cc1`, the GI50 in assay [1] was > 100 µM (inactive); in [2], > 100 µM (inactive); in assay [3], > 100 µM (inactive); in [4], 41.8 µM (inactive); in assay [5], 92 µM (inactive); in [6], 31.3 µM (inactive). Besides, the GI50 in [7] is 14.2 µM (inactive); in assay [10], 44.7 µM (inactive); in [11], 32.1 µM (inactive); in assay [12] it was 39.8 µM (inactive); in assay [13], 38.3 µM (inactive); in assay [14], 50.9 µM (inactive).
With `NCc1ccccc1-c1c2nc(c(-c3ccccc3CN)c3ccc([nH]3)c(-c3ccccc3CN)c3nc(c(-c4ccccc4CN)c4ccc1[nH]4)C=C3)C=C2`, the GI50 is 29.8 µM (inactive) in assay [2]; 23.8 µM (inactive) in [3]; 7.08 µM (inactive) in [4]; 23.7 µM (inactive) in assay [5]; 14.5 µM (inactive) in [6]; 19.7 µM (inactive) in assay [7]. Besides, the GI50 in assay [8] was 19.7 µM (inactive); in [10], 19.1 µM (inactive); in assay [11], 16.2 µM (inactive); in [12], 13.1 µM (inactive); in assay [14] it was 22.9 µM (inactive); in [15], 18.7 µM (inactive).
On to `O=[N+]([O-])c1ccc(S[C@@H]2[C@H]3c4c(-c5ccccc5)[nH]c(-c5ccccc5)c4[C@@H]2C[C@H]3Cl)cc1`, for which the GI50 in assay [1] is 4.82 µM (inactive); in assay [16] it was 3.66 µM (inactive); in assay [2], 6.17 µM (inactive); in assay [4], 0.895 µM (active); in [17], 5.08 µM (inactive); in [5], 2.79 µM (inactive). Further, the GI50 in assay [8] is 3.1 µM (inactive); in assay [18], 4.8 µM (inactive); in assay [19], 3.58 µM (inactive); in assay [9], 10.6 µM (inactive); in assay [10], 2.4 µM (inactive); in assay [11], 3.33 µM (inactive). Also, the GI50 in assay [12] is 0.938 µM (active); in assay [13], 3.71 µM (inactive); in [14], 4.66 µM (inactive); in [15], 2.94 µM (inactive); in assay [20] it was 1.93 µM (inactive).
As for `O=[N+]([O-])c1ccc(S(=O)(=O)N=Ic2ccccc2)cc1`, the GI50 in [1] was > 100 µM (inactive); in [16], > 100 µM (inactive); in [2] it was > 100 µM (inactive); in [3], 97.7 µM (inactive); in assay [4], > 100 µM (inactive); in [17], > 100 µM (inactive). Also, the GI50 in assay [5], in [6], in assay [8], in assay [18], in assay [19] and in assay [9] was > 100 µM (inactive) in each case. Further, the GI50 in [10], in assay [11], in assay [12], in assay [13], in assay [14] and in [15] was > 100 µM (inactive) each time. Moreover, the GI50 in [20] was > 100 µM (inactive).
For `CN(/N=C/c1ccc(Cl)cc1)C1=NCCCCN1`, the GI50 in assay [1] was 56.9 µM (inactive); in [16] it was > 100 µM (inactive); in assay [2], 35.1 µM (inactive); in [3], > 100 µM (inactive); in assay [4] it was 47.3 µM (inactive); in [17], > 100 µM (inactive). The GI50 in [5] was > 100 µM (inactive); in [6] it was 18.9 µM (inactive); in assay [8], 22.1 µM (inactive); in assay [18], 35 µM (inactive); in assay [19], 72.1 µM (inactive); in assay [9], 62.8 µM (inactive). Also, the GI50 in assay [10] is > 100 µM (inactive); in assay [11] it was > 100 µM (inactive); in assay [13] it was > 100 µM (inactive); in assay [14], 53.2 µM (inactive); in assay [15], 81.5 µM (inactive); in assay [20], > 100 µM (inactive).
Turning to `CCc1cccc(C)c1NC(=O)C(=O)CC(=O)c1ccc(Cl)s1`, the GI50 in assay [1], in assay [3], in assay [4], in assay [5], in assay [6] and in assay [7] was > 100 µM (inactive) in each case. Besides, the GI50 in [8], in assay [9], in assay [10], in [13] and in [15] was > 100 µM (inactive) each time.
With `CN(C)CCS/C(=N\c1ccccc1)N1CCCCC1`, the GI50 in assay [2] is 15.2 µM (inactive); in assay [4], 13.7 µM (inactive); in assay [5], 16 µM (inactive); in [6], 28.4 µM (inactive); in [7], 17.2 µM (inactive); in [8] it was 16.3 µM (inactive). Further, the GI50 is 18.9 µM (inactive) in assay [9]; 17.5 µM (inactive) in assay [10]; 16 µM (inactive) in assay [11]; 18.2 µM (inactive) in [12]; 83 µM (inactive) in assay [13]; 16.1 µM (inactive) in [14]. Besides, the GI50 in [15] was 17.7 µM (inactive).
On to `O=C1CC2CC3OC3[C@H]3c4cc5c(cc4C(=O)N1C23)OCO5` (stereo partly specified), for which the GI50 in [2], in assay [3], in assay [4], in assay [5], in assay [6] and in assay [7] was > 100 µM (inactive) each time. Further, the GI50 in assay [8], in assay [9], in [10], in [11], in [13] and in [15] was > 100 µM (inactive) each time.

Values taken from ChEMBL document CHEMBL1201862, “PubChem BioAssay data set” (2004).
